Measured values taken from paper PMC9354954, “Assessing Bioavailability and Bioactivity of 4-Hydroxythiazolidine-2-Thiones, Newly Discovered Glucosinolate Degradation Products Formed During Domestic Boiling of Cabbage” (Frontiers in Nutrition, 2022).

Key:
[1] = Stability in an in vitro stomach model; type: in vitro ADME; settings: 100 μM, 2 h, 37°C, stomach model solution pH 2
Protocol: To investigate the stability of the HTTs in the process of nutrient absorption, allyl HTT and 4-MSOB HTT were incubated (prepared as triplicates) at a concentration of 100 μM in an in vitro stomach model solution containing 2.9 g/L NaCl, 0.7 g/L KCl, 0.27 g/L KH2PO4, 0.78 g/L pepsin, and 3 g/L mucin-type II and adjusted with 1 M HCl to pH 2.0 based on literature ([25]). To simulate the stomach, samples were shaken slightly for 2 h at 200 rpm in a thermoshaker (MHR 23, Hettich Benelux B.V, Netherlands) at 37°C. Afterward, 500 μL of MeCN were added to 500 μL of stomach model solution to precipitate proteins and salts. The suspension was centrifuged for 3 min at 4,000 g and the supernatant was analyzed by HPLC-UV at a wavelength of 274 ± 2 nm. The stability of allyl HTT and 4-MSOB HTT in the stomach model was determined by the recovery compared to incubation in pure water at room temperature. […]

[2] = test system: Caco-2 cells; assay: Cytotoxicity, neutral red uptake assay; type: cell-based, human; settings: Caco-2, neutral red uptake assay, up to 100 μM, 24 h
Protocol: (§1) To determine the cytotoxicity of allyl HTT and 4-MSOB HTT, HepG2 and Caco-2 cells were seeded in a 96-well TC-plate (standard F, sterile, from Sarsted, Nümbrecht, Germany) using a seeding density of 20,000 cells/well. After 24 h, the medium was exchanged to 200 μL pure medium or 200 μL medium containing allyl HTT or 4-MSOB HTT with concentrations in the range of 0.1–100 μM. The cells were treated for 24 h under cell culture conditions (prepared for three biological replicates, every 3 technical replicates). Cell viability was determined using the MTT assay and the neutral red uptake assay based on Schröter et al. ([27]). In the case of MTT assay, after 24 h of HTT treatment, 20 μL of MTT solution (75 mg MTT in 15 mL PBS) were added, and cells were incubated for 60 min under cell culture conditions. Afterward, the supernatant was removed and 100 μL of lysis buffer (5% formic acid in isopropanol) was added and the plate was shaken for 10 min at 300 rpm before measuring the absorption at 550 ± 5 nm (reference 690 ± 5 nm) by a Tecan i-control Infinite M200 PRO plate reader (Crailsheim, Germany). In the case of the neutral red uptake assay, the supernatant was removed after 24 h HTT treatment, and 100 μL neutral red solution (40 mg neutral red in 10 mL PBS, freshly diluted 1:100 with medium and incubated for 24 h under cell culture conditions) was added. After incubation of neutral red solution for 2 h under cell culture conditions, the supernatant was removed, and cells were washed with 150 μL of PBS. After removing PBS, 150 μL desorb solution (49.5% water/49.5% ethanol/1% acetic acid) was added and the plate was shaken for 10 min at 300 rpm before measuring the absorption at 540 ± 5 nm by Tecan i-control Infinite M200 PRO plate reader. The mean ± SD is used for presenting the results of three technical replicates for each data point of the three biological replicates.

[3] = test system: HepG2 cells; assay: Cytotoxicity, neutral red uptake assay; type: cell-based, human; settings: up to 100 μM, 24 h
Protocol: as §1

[4] = set-up: method as in PMID 35761548; settings: recently calculated; cited from earlier work

## C[S+]([O-])CCCCN1C(=S)SCC1O (centres unmarked) [4-MSOB HTT, 4-hydroxy-3-(4-(methylsulfinyl)butyl)thiazolidine-2-thione]
[1]
  recovery compared to the pure water control reference: 98 ± 3%
[2]
  effect on cell viability compared to untreated cells: did not show any effect on cell viability
[3]
  effect on cell viability compared to untreated cells: did not show any effect on cell viability
[4]
  calculated log P (partition coefficient in octanol/water): −1.12

## C=CCN1C(=S)SCC1O (centres unmarked) [allyl HTT, 3-allyl-4-hydroxythiazolidine-2-thione]
[1]
  recovery compared to the pure water control reference: 98 ± 2%
[2]
  effect on cell viability compared to untreated cells: did not show any effect on cell viability
[3]
  effect on cell viability compared to untreated cells: did not show any effect on cell viability
[4]
  calculated log P (partition coefficient in octanol/water): 0.47
